ChEMBL document CHEMBL1133286, “5-HETE congeners as modulators of cell proliferation” (2000)

tested on: LNCaP; assay: Evaluated for its growth enhancement or mitogenic activity using LNCaP prostate cultures; format: functional, Homo sapiens, Prostate gland; details: not given

Row | SMILES | Control [%]
1 | CCCCC/C=C\C/C=C\C/C=C\C/C=C\CCCC(=O)NCCO [ANANDAMIDE] | 112
2 | CCCCC/C=C\C/C=C\C/C=C\C=C\C(O)CCCC(=O)c1cnccn1 (stereo not given) | 113
3 | CCCCC/C=C\C/C=C\C/C=C\C=C\C(CCCC(=O)O)NC (stereo not given) | 125
4 | CCCCC/C=C\C/C=C\C/C=C\C=C\C(O)CCCC(=O)NCCO (stereo not given) | 125
5 | CCCCC/C=C\C/C=C\C/C=C\C=C\C(O)CCCC(=O)NOC (stereo not given) | 133
6 | CCCCC/C=C\C/C=C\C/C=C\C=C\C(O)CCCC(=O)O (stereo not given) | 116
7 | CCCCC/C=C\C/C=C\C/C=C\C=C\C(N)CCCC(=O)O (stereo not given) | 116
8 | CCCCC/C=C\C/C=C\C/C=C\C=C\C(O)CCCC(=O)NN (stereo not given) | 60
9 | CCCCC/C=C\C/C=C\C/C=C\C=C\C(O)CCCC(=O)NCCCN (stereo not given) | 116
10 | CCCCC/C=C\C/C=C\C/C=C\C=C\C(O)CCCC(=O)NC (stereo not given) | 108
11 | CCCCC/C=C\C/C=C\C/C=C\C=C\C(O)CCCC(=O)N(C)C (stereo not given) | 138
12 | CCCCC/C=C\C/C=C\C/C=C\C=C\C(O)CCCC(=O)N1CCOCC1 (stereo not given) | 106
13 | CCCCC/C=C\C/C=C\C/C=C\C=C\C(O)CCCC(=O)N(C)OC (stereo not given) | 115
14 | CCCCC/C=C\C/C=C\C/C=C\C=C\C(O)CCCC(N)=O (stereo not given) | 108
15 | CCCCC/C=C\C/C=C\C/C=C\C=C\C(O)CCCC(=O)OC (stereo not given) | 111
16 | CCCCC/C=C\C/C=C\C/C=C\C=C\C1CCCC(=O)N1 (stereo not given) | 121
17 | CCCCC/C=C\C/C=C\C/C=C\C=C\C(O)CCCC(=O)N1CCCCC1 (stereo not given) | 123
18 | CCCCC/C=C\C/C=C\C/C=C\C=C\C(O)CCCC(=O)NO (stereo not given) | 3
19 | CCCCC/C=C\C/C=C\C/C=C\C=C\C1CCCC(=O)N1C (stereo not given) | 131

tested on: LNCaP; assay: Evaluated for its growth enhancement or mitogenic activity using LNCaP prostate cultures.; format: functional, cell-based; details: Homo sapiens, Prostate gland

Row | SMILES | Control
20 | CCCCCCCC/C=C\CCCCCCCC(=O)NCCO | No effect
